Like-named read-outs stand apart in the source and are kept apart here.
Assays:
RORγt [1] = target: T1, RORγt (Homo sapiens, UniProt P51449); assay: Jurkat reporter test (human IL-17 ROR response element luciferase reporter); format: cell-based; conditions: read-out: luminescence level inhibitory rate (%) at test compound 3 μM
T1 sequence (P51449 1-497 isoform P51449-2): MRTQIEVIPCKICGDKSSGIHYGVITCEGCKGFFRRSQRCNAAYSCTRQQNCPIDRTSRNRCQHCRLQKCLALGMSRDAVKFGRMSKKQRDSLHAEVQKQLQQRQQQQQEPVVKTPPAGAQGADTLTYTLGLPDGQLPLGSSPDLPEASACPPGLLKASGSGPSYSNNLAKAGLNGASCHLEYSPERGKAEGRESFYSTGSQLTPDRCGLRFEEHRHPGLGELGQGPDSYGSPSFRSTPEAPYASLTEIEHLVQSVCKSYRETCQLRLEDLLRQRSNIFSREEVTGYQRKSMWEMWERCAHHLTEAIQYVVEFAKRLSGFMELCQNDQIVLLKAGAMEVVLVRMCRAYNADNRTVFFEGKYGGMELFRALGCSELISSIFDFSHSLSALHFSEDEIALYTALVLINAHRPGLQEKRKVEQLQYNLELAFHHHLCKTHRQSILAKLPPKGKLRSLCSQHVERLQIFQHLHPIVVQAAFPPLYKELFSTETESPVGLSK
Experimental: The Jurkat cells used for the reporter test were cultured in a culture medium (RPMI (Invitrogen), 10% FCS (AusGeneX), 100 U/mL penicillin, 100 μg/mL streptomycin). On the day of the test, 4×10^7 cells were recovered by a centrifugal operation (1000 rpm, 5 min.) and suspended in PBS (phosphate buffered saline) (Invitrogen). Thereafter, the cells were recovered again by a centrifugal operation, and suspended in 2 mL of R buffer (NEON transfection kit, Invitrogen). […] Gene transfer was performed by Electroporation apparatus (NEON, Invitrogen) under the conditions of pulse voltage 1350 V, interval 10 milliseconds, number of times 3. The cells after gene transfer were suspended in 40 mL of a reaction medium (RPMI, 10% Lipid reduced FCS (HyClone), 10 mM HEPES (pH 7.5), 100 U/mL penicillin, 100 μg/mL streptomycin, 5 μM lovastatin), and plated in a 96 well plate by 90 μL. A test compound diluted with the reaction medium was added by 10 μL, and the cells were cultured overnight in an incubator. Bright-Glo (Promega) was added by 100 μL, and the mixture was stirred at room temperature for 10 min, and the luminescence level was measured by Envision (PerkinElmer).

RORγt [2] = target: T1, RORγt; assay: Cofactor recruitment test (Alpha Screen, biotinylated SRC-1 peptide); format: biochemical; conditions: read-out: signal value inhibitory rate (%) at test compound 1 μM
Experimental: Cofactor Recruitment Test
Cofactor recruitment test was performed by Alpha Screen (Histidine Detection Kit, PerkinElmer) method. First, a test compound was diluted with an assay buffer (50 mM Tris-HCl (pH 7.5), 50 mM KCl, 1 mM DTT, 0.1% BSA) and added to a 384 well plate by 5 μL. […] The mixture was stood in a dark place for 1 hr, and the signal value was measured by Envision (PerkinElmer).

RORγt [3] = target: T1, RORγt; assay: RORγt binding test (TR-FRET, fluorescent-labeled cholesterol); conditions: read-out: binding inhibitory rate (%) of fluorescent-labeled cholesterol to RORγt at test compound 1 μM
Experimental: The binding activity of the test compound to RORγt was measured by a time resolved fluorescence resonance energy transfer method (TR-FRET) utilizing histidine-tagged RORγt, fluorescent-labeled cholesterol (BODIPY-cholesterol, AVIVA), and terbium-labeled anti-histidine tag antibody (Invitrogen). First, a test compound diluted with an assay buffer (20 mM Tris-HCl (pH 7.5), 100 mM NaCl, 1 mM DTT, 0.1% BSA) was added to a 384 well plate by 3 μL. Then, RORγt diluted with an assay buffer to 240 nM was added by 3 μL, after which fluorescent-labeled cholesterol diluted with the assay buffer to 12 μM was added by 3 μL, and the mixture was stood at room temperature for 20 min. Thereafter, a terbium-labeled anti-histidine tag antibody diluted with the assay buffer to 8 nM was added by 3 μL. The mixture was stood at room temperature for 20 min, and fluorescence intensity (excitation wavelength 320 nm, fluorescence wavelength 520 nm, delay time 100 microseconds) was measured by Envision (PerkinElmer).

[4] = test compound 3 μM, Jurkat cells

Cn1ncc2cc(C(NC(=O)[C@@H]3CNC(=O)C3)C(=O)Nc3ccc([Si](C)(C)C)c(F)c3)ccc21 (mixture of isomers) [Example 109, (3S)—N-(2-((3-fluoro-4-(trimethylsilyl)phenyl)amino)-1-(1-methyl-1H-indazol-5-yl)-2-oxoethyl)-5-oxopyrrolidine-3-carboxamide]
inhibition at 3 µM (RORγt [1]; Jurkat): 100% | inhibition at 1 µM (RORγt [2]): 87.6% | inhibition at 1 µM (RORγt [3]): 100%

COCc1ccc(C(NC(=O)[C@@H]2CNC(=O)C2)C(=O)Nc2ccc(CC(C)(C)C)c(F)c2)cc1 (mixture of isomers) [Example 110, (3S)—N-(2-((4-(2,2-dimethylpropyl)-3-fluorophenyl)amino)-1-(4-(methoxymethyl)phenyl)-2-oxoethyl)-5-oxopyrrolidine-3-carboxamide]
inhibition at 3 µM (RORγt [1]; [4]): 95.4% | inhibition at 1 µM (RORγt [2]): 71.1% | inhibition at 1 µM (RORγt [3]): 99.6%

CC(C)(C)c1ccc(NC(=O)[C@H](NC(=O)C(O)C(F)(F)F)C2CCOCC2)cc1Cl (single isomer, unassigned) [Example 11]
inhibition at 3 µM (RORγt [1]; [4]): 97.5% | inhibition at 1 µM (RORγt [2]): 32% | inhibition at 1 µM (RORγt [3]): 102%

COCc1ccc([C@@H](NC(=O)C2CNC(=O)C2)C(=O)Nc2ccc(CC(C)(C)C)c(F)c2)cc1 (stereo in doubt) [Example 115, (3S)-N-((1R)-2-((4-(2,2-dimethylpropyl)-3-fluorophenyl)amino)-1-(4-(methoxymethyl)phenyl)-2-oxoethyl)-5-oxopyrrolidine-3-carboxamide]
inhibition at 3 µM (RORγt [1]; [4]): 97.3% | inhibition at 1 µM (RORγt [2]): 71.6% | inhibition at 1 µM (RORγt [3]): 102%

C[Si](C)(C)c1c(F)cc(NC(=O)C(NC(=O)Cn2cnccc2=O)C2CCOCC2)cc1F (stereo not drawn) [Example 1, N-(3,5-difluoro-4-(trimethylsilyl)phenyl)-2-(((6-oxopyrimidin-1(6H)-yl)acetyl)amino)-2-(tetrahydro-2H-pyran-4-yl)acetamide]
inhibition at 3 µM (RORγt [1]; Jurkat): 97.3% | inhibition at 1 µM (RORγt [2]): 72.7% | inhibition at 1 µM (RORγt [3]): 100%

Cc1nnc(CC(=O)NC(C(=O)Nc2cc(F)c([Si](C)(C)C)c(F)c2)C2CCOCC2)o1 (stereo not drawn) [Example 2, N-(3,5-difluoro-4-(trimethylsilyl)phenyl)-2-(((5-methyl-1,3,4-oxadiazol-2-yl)acetyl)amino)-2-(tetrahydro-2H-pyran-4-yl)acetamide]
inhibition at 3 µM (RORγt [1]; Jurkat): 98.1% | inhibition at 1 µM (RORγt [2]): 78% | inhibition at 1 µM (RORγt [3]): 102%

C[Si](C)(C)c1c(F)cc(NC(=O)[C@H](NC(=O)c2cc(O)no2)C2CCOCC2)cc1F [Example 3, N-((1R)-2-((3,5-difluoro-4-(trimethylsilyl)phenyl)amino)-2-oxo-1-(tetrahydro-2H-pyran-4-yl)ethyl)-3-hydroxy-1,2-oxazole-5-carboxamide]
inhibition at 3 µM (RORγt [1]; Jurkat): 98.4% | inhibition at 1 µM (RORγt [2]): 72.3% | inhibition at 1 µM (RORγt [3]): 100%

C[Si](C)(C)c1ccc(NC(=O)C(NC(=O)c2cc(O)no2)C2CCC(F)(F)CC2)cc1F (stereo not drawn) [Example 4, N-(1-(4,4-difluorocyclohexyl)-2-((3-fluoro-4-(trimethylsilyl)phenyl)amino)-2-oxoethyl)-3-hydroxy-1,2-oxazole-5-carboxamide]
inhibition at 3 µM (RORγt [1]; Jurkat): 97% | inhibition at 1 µM (RORγt [2]): 78.8% | inhibition at 1 µM (RORγt [3]): 100%

C[Si](C)(C)c1ccc(NC(=O)C(NC(=O)[C@@H]2CNC(=O)C2)C2CCC(F)(F)CC2)cc1F (stereo partly drawn) [Example 5, (3S)—N-(1-(4,4-difluorocyclohexyl)-2-((3-fluoro-4-(trimethylsilyl)phenyl)amino)-2-oxoethyl)-5-oxopyrrolidine-3-carboxamide]
inhibition at 3 µM (RORγt [1]; Jurkat): 98% | inhibition at 1 µM (RORγt [2]): 84.8% | inhibition at 1 µM (RORγt [3]): 100%

CN(C(=O)c1cc(O)no1)C(C(=O)Nc1cc(F)c([Si](C)(C)C)c(F)c1)C1CCOCC1 (stereo not drawn) [Example 6, N-(2-((3,5-difluoro-4-(trimethylsilyl)phenyl)amino)-2-oxo-1-(tetrahydro-2H-pyran-4-yl)ethyl)-3-hydroxy-N-methyl-1,2-oxazole-5-carboxamide]
inhibition at 3 µM (RORγt [1]; Jurkat): 101% | inhibition at 1 µM (RORγt [2]): 99.4% | inhibition at 1 µM (RORγt [3]): 102%

CC(C)(C)c1ccc(NC(=O)[C@H](NC(=O)[C@@H]2CNC(=O)C2)C2CCC(F)(F)CC2)cc1F [Example 7, (3S)—N-((1R)-2-((4-tert-butyl-3-fluorophenyl)amino)-1-(4,4-difluorocyclohexyl)-2-oxoethyl)-5-oxopyrrolidine-3-carboxamide]
inhibition at 3 µM (RORγt [1]; [4]): 97% | inhibition at 1 µM (RORγt [2]): 56.9% | inhibition at 1 µM (RORγt [3]): 102%

CC(C)(C)c1ccc(NC(=O)[C@H](NC(=O)C2CNC(=O)O2)C2CCC(F)(F)CC2)cc1F (stereo partly drawn) [Example 8, N-((1R)-2-((4-tert-butyl-3-fluorophenyl)amino)-1-(4,4-difluorocyclohexyl)-2-oxoethyl)-2-oxo-1,3-oxazolidine-5-carboxamide]
inhibition at 3 µM (RORγt [1]; [4]): 93.4% | inhibition at 1 µM (RORγt [2]): 49.1% | inhibition at 1 µM (RORγt [3]): 102%

CC(C)(C)c1ccc(NC(=O)[C@H](NC(=O)CC(F)(F)F)C2CCOCC2)cc1Cl [Example 9, N-((1R)-2-((4-tert-butyl-3-chlorophenyl)amino)-2-oxo-1-(tetrahydro-2H-pyran-4-yl)ethyl)-3,3,3-trifluoropropanamide]
inhibition at 3 µM (RORγt [1]; [4]): 97.6% | inhibition at 1 µM (RORγt [2]): 29.7% | inhibition at 1 µM (RORγt [3]): 100%

CC(C)(C)c1ccc(NC(=O)[C@H](NC(=O)[C@@H](O)C(F)(F)F)C2CCOCC2)cc1Cl [Example 10, N-((1R)-2-((4-tert-butyl-3-chlorophenyl)amino)-2-oxo-1-(tetrahydro-2H-pyran-4-yl)ethyl)-3,3,3-trifluoro-2-hydroxypropanamide]
inhibition at 3 µM (RORγt [1]; [4]): 95.3% | inhibition at 1 µM (RORγt [2]): 2.04% | inhibition at 1 µM (RORγt [3]): 102%

COc1ccc(C(NC(=O)C2CNC(=O)C2)C(=O)Nc2ccc([Si](C)(C)C)cc2)cc1 (stereo not drawn) [Example 13, N-(1-(4-methoxyphenyl)-2-oxo-2-((4-(trimethylsilyl)phenyl)amino)ethyl)-5-oxopyrrolidine-3-carboxamide]
inhibition at 3 µM (RORγt [1]; Jurkat): 92.6% | inhibition at 1 µM (RORγt [2]): 51.1% | inhibition at 1 µM (RORγt [3]): 101%

COc1ccc(C(C(=O)Nc2ccc([Si](C)(C)C)c(F)c2)N(C)C(=O)c2cc(O)no2)cc1 (stereo not drawn) [Example 15, N-(2-((3-fluoro-4-(trimethylsilyl)phenyl)amino)-1-(4-methoxyphenyl)-2-oxoethyl)-3-hydroxy-N-methyl-1,2-oxazole-5-carboxamide]
inhibition at 3 µM (RORγt [1]; Jurkat): 99.4% | inhibition at 1 µM (RORγt [2]): 91.6% | inhibition at 1 µM (RORγt [3]): 109%

COc1ccc(C(NC(=O)Cc2ccc(=O)[nH]c2)C(=O)Nc2ccc([Si](C)(C)C)cc2)cc1 (stereo not drawn) [Example 16, 2-(4-methoxyphenyl)-2-(((6-oxo-1,6-dihydropyridin-3-yl)acetyl)amino)-N-(4-(trimethylsilyl)phenyl)acetamide]
inhibition at 3 µM (RORγt [1]; Jurkat): 93.2% | inhibition at 1 µM (RORγt [2]): 81.9% | inhibition at 1 µM (RORγt [3]): 102%

COc1ccc(C(NC(=O)Cc2cc(C)no2)C(=O)Nc2ccc([Si](C)(C)C)cc2)cc1 (stereo not drawn) [Example 18, 2-(4-methoxyphenyl)-2-(((3-methyl-1,2-oxazol-5-yl)acetyl)amino)-N-(4-(trimethylsilyl)phenyl)acetamide]
inhibition at 3 µM (RORγt [1]; Jurkat): 90.9% | inhibition at 1 µM (RORγt [2]): 60.3% | inhibition at 1 µM (RORγt [3]): 101%

COc1ccc(C(NC(=O)Cc2ccn(C)n2)C(=O)Nc2ccc([Si](C)(C)C)cc2)cc1 (stereo not drawn) [Example 19, 2-(4-methoxyphenyl)-2-(((1-methyl-1H-pyrazol-3-yl)acetyl)amino)-N-(4-(trimethylsilyl)phenyl)acetamide]
inhibition at 3 µM (RORγt [1]; Jurkat): 84.7% | inhibition at 1 µM (RORγt [2]): 50.7% | inhibition at 1 µM (RORγt [3]): 101%
